Assays:
[1] = target: T1, Human Factor XIIa (Homo sapiens, UniProt P00748); test: Determination of FXIIa inhibitory activity in vitro (fluorogenic substrate H-DPro-Phe-Arg-AFC); format: biochemical; conditions: 25° C., residual enzyme activity (initial rate)
T1 construct: Human Factor XIIa (Enzyme Research Laboratories) was incubated; purchased Enzyme Research Laboratories
T1 sequence (P00748 373-615 limits assumed): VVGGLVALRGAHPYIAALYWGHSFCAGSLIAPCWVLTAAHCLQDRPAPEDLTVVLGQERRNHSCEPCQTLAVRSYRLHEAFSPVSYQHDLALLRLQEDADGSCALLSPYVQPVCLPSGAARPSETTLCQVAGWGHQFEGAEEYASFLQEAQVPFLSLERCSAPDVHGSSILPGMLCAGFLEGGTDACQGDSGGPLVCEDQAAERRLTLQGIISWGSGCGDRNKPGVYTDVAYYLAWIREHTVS
T1 sequence (P00748 20-372 partner limits assumed): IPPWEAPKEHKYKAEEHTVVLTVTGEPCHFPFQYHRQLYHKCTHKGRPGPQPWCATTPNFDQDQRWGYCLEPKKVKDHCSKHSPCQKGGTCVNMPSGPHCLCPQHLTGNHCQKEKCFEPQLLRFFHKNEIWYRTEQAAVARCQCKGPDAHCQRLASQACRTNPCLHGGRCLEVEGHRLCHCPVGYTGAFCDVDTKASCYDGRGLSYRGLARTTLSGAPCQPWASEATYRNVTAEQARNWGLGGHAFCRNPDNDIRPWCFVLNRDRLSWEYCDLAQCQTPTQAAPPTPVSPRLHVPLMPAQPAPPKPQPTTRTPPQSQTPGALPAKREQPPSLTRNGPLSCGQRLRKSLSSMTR

[2] = target: T2, Human FXIa (Homo sapiens, UniProt P03951); test: Determination of FXIa inhibitory activity in vitro (fluorogenic substrate Z-Gly-Pro-Arg-AFC); format: biochemical; conditions: selectivity, 25° C., residual enzyme activity (initial rate)
T2 construct: Human FXIa (Enzyme Research Laboratories) was incubated; purchased Enzyme Research Laboratories
T2 sequence (P03951 388-625 limits assumed): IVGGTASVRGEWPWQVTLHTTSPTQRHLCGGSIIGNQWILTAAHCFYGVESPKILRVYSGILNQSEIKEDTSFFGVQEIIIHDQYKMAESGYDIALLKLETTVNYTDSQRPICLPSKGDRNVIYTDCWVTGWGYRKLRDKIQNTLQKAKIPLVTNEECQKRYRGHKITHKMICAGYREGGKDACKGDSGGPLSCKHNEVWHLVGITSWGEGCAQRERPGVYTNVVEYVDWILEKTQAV
T2 sequence (P03951 19-387 partner limits assumed): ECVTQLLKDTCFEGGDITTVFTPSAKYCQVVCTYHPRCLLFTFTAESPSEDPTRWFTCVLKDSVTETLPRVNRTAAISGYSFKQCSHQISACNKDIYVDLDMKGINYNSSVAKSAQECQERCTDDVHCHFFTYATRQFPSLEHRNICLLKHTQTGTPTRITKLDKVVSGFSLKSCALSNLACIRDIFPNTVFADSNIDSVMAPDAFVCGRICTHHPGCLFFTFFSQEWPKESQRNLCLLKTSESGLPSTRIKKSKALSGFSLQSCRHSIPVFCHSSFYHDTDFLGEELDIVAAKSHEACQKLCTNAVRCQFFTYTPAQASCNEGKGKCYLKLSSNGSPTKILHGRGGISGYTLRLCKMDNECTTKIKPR

Row | IC50 [1] | IC50 [2] | Compound
1 | 1 to 3 µM | 76.4 µM | Nc1nccc2cc(CNC(=O)c3cc(Cl)c(CNCC4CCN(c5ccncc5)CC4)s3)ccc12 [Example 2.36, N-[(1-Aminoisoquinolin-6-yl)methyl]-4-chloro-5-[({[1-(pyridin-4-yl)piperidin-4-yl]methyl}amino)methyl]thiophene-2-carboxamide]
2 | 3 to 10 µM | > 40 µM | Nc1nccc2cc(CNC(=O)c3cc(Cl)c(CNCc4ccc(N5CCCC5=O)cc4)s3)ccc12 [Example 2.58]
3 | 3 to 10 µM | > 40 µM | Nc1nccc2cc(CNC(=O)c3cc(Cl)c(CN4CCN(c5ccncc5)CC4)s3)ccc12 [Example 5.12]
4 | 3 to 10 µM | > 40 µM | Nc1nccc2cc(CNC(=O)c3cc(Cl)c(CN4CCN(c5cccnc5)CC4)s3)ccc12 [Example 5.16]
5 | 10 to 40 µM | > 40 µM | Nc1nccc2cc(CNC(=O)c3cc(Cl)c(CN4CCN(c5ccccn5)CC4)s3)ccc12 [Example 5.17]
6 | 10 to 40 µM | 37.7 µM | Nc1nccc2cc(CNC(=O)c3cc(Cl)c(CN4CC[C@@H](Nc5cccnc5)C4)s3)ccc12 [Example 5.18, N-[(1-Amino-6-isoquinolyl)methyl]-4-chloro-5-[[(3R)-3-(3-pyridylamino)pyrrolidin-1-yl]methyl]thiophene-2-carboxamide]
7 | 3 to 10 µM | 29.3 µM | Nc1nccc2cc(CNC(=O)c3cc(Cl)c(CN4Cc5ccncc5C4)s3)ccc12 [Example 5.19]
8 | 10 to 40 µM | > 40 µM | Cc1cc(C(=O)NCc2ccc3c(N)nccc3c2)sc1CN1CCN(c2ccncc2)CC1 [Example 5.20, N-[(1-Amino-6-isoquinolyl)methyl]-4-methyl-5-[[4-(4-pyridyl)piperazin-1-yl]methyl]thiophene-2-carboxamide]
9 | 10 to 40 µM | > 40 µM | Nc1nccc2cc(CNC(=O)c3cc(Cl)c(CN4CC[C@H](Nc5cccnc5)C4)s3)ccc12 [Example 5.21]
10 | 3 to 10 µM | > 40 µM | Nc1nccc2cc(CNC(=O)c3cc(Cl)c(CN4CCc5ccncc5C4)s3)ccc12 [Example 5.22]
11 | 10 to 40 µM | 8.35 µM | Nc1nccc2c1CC[C@H]2NC(=O)c1cc(Cl)c(CN2CCN(c3ccncc3)CC2)s1 [Example 5.23, N-[(5R)-1-Amino-6,7-dihydro-5H-cyclopenta[c]pyridin-5-yl]-4-chloro-5-[[4-(4-pyridyl)piperazin-1-yl]methyl]thiophene-2-carboxamide]
12 | 3 to 10 µM | > 40 µM | Cc1cc(C(=O)NCc2ccc3c(N)nccc3c2)sc1CN1CCCN(c2ccncc2)CC1 [Example 5.24, N-((1-Aminoisoquinolin-6-yl)methyl)-4-methyl-5-((4-(pyridin-4-yl)-1,4-diazepan-1-yl)methyl) thiophene-2-carboxamide]
13 | 10 to 40 µM | > 40 µM | Cc1cc(C(=O)NCc2ccc3c(N)nccc3c2)sc1CN1CC(Oc2ccncc2)C1 [Example 5.25, N-[(1-Amino-6-isoquinolyl)methyl]-4-methyl-5-[[3-(4-pyridyloxy)azetidin-1-yl]methyl]thiophene-2-carboxamide]
14 | 10 to 40 µM | > 40 µM | Cc1cc(C(=O)NCc2ccc3c(N)nccc3c2)sc1CN1CCN(c2ccncn2)CC1 [Example 5.26, N-((1-Aminoisoquinolin-6-yl)methyl)-4-methyl-5-((4-(pyrimidin-4-yl)piperazin-1-yl)methyl) thiophene-2-carboxamide]
15 | 10 to 40 µM | > 40 µM | Cc1cc(C(=O)NCc2ccc3c(N)nccc3c2)sc1CN1CCN(c2ccn(C)c(=O)c2)CC1 [Example 5.27]
16 | 10 to 40 µM | > 40 µM | Cc1cc(C(=O)NCc2ccc3c(N)nccc3c2)sc1CN1CCN(c2cnn(C)c2)CC1 [Example 5.28]
17 | 10 to 40 µM | 38.5 µM | Cc1cc(C(=O)NCc2ccc3c(N)nccc3c2)sc1CN1CCN(c2cc[nH]c(=O)c2)CC1 [Example 5.29]
18 | 1 to 3 µM | > 40 µM | CNS(=O)(=O)c1sc(C(=O)NCc2ccc3c(N)nccc3c2)cc1Br [Example 25.07]
19 | 10 to 40 µM | > 40 µM | Nc1nccc2cc(CNC(=O)c3cc(Cl)c(Cc4ccccc4)s3)ccc12 [Example 25.08]
20 | 10 to 40 µM | > 40 µM | CN1CCC(c2ccc(C(=O)NCc3ccc4c(N)nccc4c3)s2)CC1 [Example 25.09]
21 | 3 to 10 µM | > 40 µM | CN1CCC(Cc2sc(C(=O)NCc3ccc4c(N)nccc4c3)cc2Cl)CC1 [Example 25.10]
22 | 3 to 10 µM | > 40 µM | Cc1cc(CN)cc(C)c1CNC(=O)c1cc(Cl)c(C)s1 [Example 25.102, N-(4-(Aminomethyl)-2,6-dimethylbenzyl)-4-chloro-5-methylthiophene-2-carboxamide]
23 | 1 to 3 µM | > 40 µM | Nc1nccc2cc(CNC(=O)c3cc4c(Cl)cccc4s3)ccc12 [Example 25.203, N-((1-Aminoisoquinolin-6-yl)methyl)-4-chlorobenzo[b]thiophene-2-carboxamide]

Row | IC50 [1] | IC50 [2] | Compound
24 | 1 to 3 µM | > 40 µM | Nc1nccc2cc(CNC(=O)c3cc4c(Cl)cccc4[nH]3)ccc12 [Example 25.207]
25 | 3 to 10 µM | > 40 µM | CN1CCC(CNc2cnn(C)c2C(=O)NCc2ccc3c(N)nccc3c2)CC1 [Example 26.01]
26 | 10 to 40 µM | > 40 µM | Cc1n[nH]c(C(=O)NCc2ccc3c(N)nccc3c2)c1NCC1CCN(C)CC1 [Example 26.02]
27 | 10 to 40 µM | > 40 µM | Cc1cc(OCC2CCN(C)CC2)c(C(=O)NCc2ccc3c(N)nccc3c2)s1 [Example 26.04]
28 | 1 to 3 µM | > 40 µM | Cc1cc(NCC2CCN(C)CC2)c(C(=O)NCc2ccc3c(N)nccc3c2)s1 [Example 26.05, N-((1-Aminoisoquinolin-6-yl)methyl)-5-methyl-3-(((1-methylpiperidin-4-yl)methyl)amino) thiophene-2-carboxamide]
29 | 10 to 40 µM | > 40 µM | Cc1csc(C(=O)NCc2ccc3c(N)nccc3c2)c1NC(=O)C1CCN(C)CC1 [Example 26.07]
30 | 1 to 3 µM | > 40 µM | Cc1c(Cl)sc(C(=O)NCc2ccc3c(N)nccc3c2)c1NCC1CCN(C)CC1 [Example 26.09]
31 | 1 to 3 µM | > 40 µM | Cc1sc(C(=O)NCc2ccc3c(N)nccc3c2)c(NCC2CCN(C)CC2)c1Cl [Example 26.10, N-((1-Aminoisoquinolin-6-yl)methyl)-4-chloro-5-methyl-3-(((1-methylpiperidin-4-yl)methyl)amino) thiophene-2-carboxamide]
32 | 10 to 40 µM | > 40 µM | CC(C)(C)OC(=O)N1CCC(Cn2nc(Cl)cc2C(=O)NCc2ccc3c(N)nccc3c2)CC1 [Example 35.01]
33 | 3 to 10 µM | > 40 µM | Nc1nccc2cc(CNC(=O)c3cc(Cl)nn3CC3CCNCC3)ccc12 [Example 35.02]
34 | 3 to 10 µM | > 40 µM | CCN1CCC(Cn2nc(Cl)cc2C(=O)NCc2ccc3c(N)nccc3c2)CC1 [Example 35.03]
35 | < 1 µM | > 40 µM | CN1CCC(CCn2nc(Cl)cc2C(=O)NCc2ccc3c(N)nccc3c2)CC1 [Example 35.04, N-((1-Aminoisoquinolin-6-yl)methyl)-3-chloro-1-(2-(1-methylpiperidin-4-yl)ethyl)-1H-pyrazole-5-carboxamide]
36 | 3 to 10 µM | 31.7 µM | Nc1nccc2cc(CNC(=O)c3cc(C4CC4)nn3CC3CCN(c4ccncc4)CC3)ccc12 [Example 35.05]
37 | 10 to 40 µM | > 40 µM | Cc1cc(C(=O)NCc2ccc3c(N)nccc3c2)n(CC2CCN(c3ccncc3)CC2)n1 [Example 35.06]
38 | 1 to 3 µM | > 40 µM | CN1CCC(CCn2nccc2C(=O)NCc2ccc3c(N)nccc3c2)CC1 [Example 35.07]
39 | 10 to 40 µM | – | Cc1c(C(=O)NCc2ccc3c(N)nccc3c2)cc(-c2ccccc2)n1CCCN1CCOCC1 [Example 51.01]
40 | 10 to 40 µM | 12.4 µM | CCn1c(C(=O)NCc2ccc3c(N)nccc3c2)cc(C)c1CN1CCN(c2ccncc2)CC1 [Example 51.02, N-[(1-Amino-6-isoquinolyl)methyl]-1-ethyl-4-methyl-5-[[4-(4-pyridyl)piperazin-1-yl]methyl]pyrrole-2-carboxamide]
41 | 3 to 10 µM | 20.5 µM | CCc1cc(C(=O)NCc2ccc3c(N)nccc3c2)sc1CN1CCN(c2ccncc2)CC1 [Example 51.03]
42 | 3 to 10 µM | > 40 µM | Cc1cc(C(=O)NCc2ccc3c(N)nccc3c2)nn1CC1CCN(c2ccncc2)CC1 [Example 51.04]
43 | 1 to 3 µM | – | CN1CCC(CCn2ccc(C(=O)NCc3ccc4c(N)nccc4c3)n2)CC1 [Example 51.06]
44 | 1 to 3 µM | – | CN1CCC(CCCn2ccc(C(=O)NCc3ccc4c(N)nccc4c3)n2)CC1 [Example 51.07]
45 | 10 to 40 µM | – | CC(=O)N1CCC(CCn2ccc(C(=O)NCc3ccc4c(N)nccc4c3)n2)CC1 [Example 51.08]

Row | Compound | IC50 [1] | IC50 [2]
46 | CN1CCC(Cn2c(C(=O)NCc3ccc4c(N)nccc4c3)cc3ccccc32)CC1 [Example 25.201] | 3 to 10 µM | > 40 µM
47 | CCN1CCC(Cn2c(C(=O)NCc3ccc4c(N)nccc4c3)nc3ccccc32)CC1 [Example 25.202] | 1 to 3 µM | > 40 µM

From patent publication US20220289727A1, “ENZYME INHIBITORS” (KALVISTA PHARMACEUTICALS LIMITED, priority 2019, published 2022)
